{"source": "patent US20250170103A1", "about": "“4-(6-OXO-2-(TRIFLUOROMETHYL)-3,6-DIHYDROCHROMENO[7,8-D]IMIDAZOL-8-YL)BENZONITRILE FOR USE IN THE TREATMENT OF DISEASES AND CONDITIONS ASSOCIATED WITH MOVEMENT DISORDERS” (OnTrack Therapeutics Limited, priority 2022, published 2025)", "key": {"5XFAD mice": {"tested_on": "5XFAD mice", "settings": "repeated administration, WO2020/033604; cited from earlier work"}, "[1]": {"tested_on": "dopaminergic TH-positive neurons injured with MPP+", "assay": "MPP+ in vitro Parkinson's disease model, TH/αSyn plate at 48 hours (α-syn, DA neurons, neurites)", "type": "cell-based, rat", "settings": "MPP+ 4 μM", "method": "(§1) The ventral portion of the mesencephalic flexure, a region of the developing brain rich in dopaminergic neurons, was used for the cell preparations.\n(§2) (solution at a final concentration of 0.05% trypsin and 0.02% EDTA). […] Cells were then mechanically dissociated by 3 passages through a 10 ml pipette. Cells were then centrifuged at 180×g for 10 min at +4° C. on a layer of BSA (3.5%) in L15 medium. […] Viable cells were counted in a Neubauer cytometer using the trypan blue exclusion test. […] Half of the medium was changed every 2 days with fresh medium.\nThe cells were washed twice in PBS, and then permeabilized."}, "[2]": {"tested_on": "dopaminergic TH-positive neurons injured with MPP+", "assay": "MPP+ in vitro Parkinson's disease model, mitochondrial ROS in TH neurons at 4 hours (TH/ROS plate)", "type": "cell-based, rat", "settings": "CF3CN 10 nm to 1 μm, 1 h pre-incubation, MPP+ 4 μM, FIG. 1", "method": "as §1, §2"}, "[3]": {"tested_on": "primary SOD1 transgenic spinal cord motor neurons injured with glutamate", "assay": "In vitro ALS model: glutamate-injured primary spinal motor neurons (MAP2/TDP43, 24 hours)", "type": "cell-based, rat", "settings": "for number of motor neurons: FIG. 5", "method": "Cells were mechanically dissociated by three forced passages through the tip of a 10-ml pipette. Cells were then centrifuged at 515×g for 10 min at 4° C. […] Viable cells were counted in a Neubauer cytometer, using the trypan blue exclusion test. […] The medium was changed every 2 days."}}}
{"molecule": "N#Cc1ccc(-c2cc(=O)c3ccc4[nH]c(C(F)(F)F)nc4c3o2)cc1", "note": "[CF3CN, 4-(6-oxo-2-(trifluoromethyl)-3,6-dihydrochromeno[7,8-d]imidazol-8-yl)benzonitrile]", "values": [{"measurement": "synaptic loss", "setting": "5XFAD mice", "result": "prevent synaptic loss"}, {"measurement": "level of neurites", "setting": "[1]; CF3CN 1 nm to 1 μm, FIG. 4", "result": "increase the level of neurites"}, {"measurement": "number of DA neurons", "setting": "[1]; CF3CN 10 and 100 nm, FIG. 3", "result": "increase the number of DA neurons"}, {"measurement": "level of α-syn", "setting": "[1]; all dose levels (1 nM to 5 μM) except 10 μm, FIG. 2", "result": "statistically significantly reduce the level of α-syn"}, {"measurement": "reduction of mitochondrial stress (ROS in TH(+) neurons)", "setting": "[2]", "result": "statistically significantly reduced ROS"}, {"measurement": "neurite network", "setting": "[3]; CF3CN 10 and 100 nm, glutamate 5 μM 20 min, 24 hours, compared to the control, FIG. 6", "result": "increased the neurite network in a statistically significant manner"}, {"measurement": "level of extranuclear TDP-43 versus the positive controls", "setting": "[3]; CF3CN 10 nm and 100 nm, compared with Riluzole 5 μM and BDNF 50 ng/ml", "result": "greater decrease in the level of extranuclear TDP-43 than the positive controls"}, {"measurement": "number of motor neurons", "setting": "[3]; CF3CN 10 nm, 100 nm and 1 μm, glutamate 5 μM 20 min, 24 hours, compared to the control", "result": "statistically significant increase in the number of motor neurons"}, {"measurement": "number of extranuclear TDP-43", "setting": "[3]; CF3CN all concentrations except the highest and the lowest (10 nM to 5 μM), glutamate 5 μM 20 min, 24 hours, FIG. 7", "result": "decreased the number of extranuclear TDP-43 in a statistically significant manner"}]}
{"molecule": "BDNF: classical neurotrophic factor, used as an endogenous activator of the signalling pathway under investigation (protein, UniProt P23560 19-247, looked up) Neurotrophic factor BDNF …: APMKEANIRGQGGLAYPGVRTHGTLESVNGPKAGSRGLTSLADTFEHVIEELLDEDQKVRPNEENNKDADLYTSRVMLSSQVPLEPPLLFLLEEYKNYLDAANMSMRVRRHSDPARRGELSVCDSISEWVTAADKKTAVDMSGGTVTVLEKVPVSKGQLKQYFYETKCNPMGYTKEGCRGIDKRHWNSQCRTTQSYVRALTMDSKKRIGWRFIRIDTSCVCTLTIKRGR", "values": [{"measurement": "number of motor neurons", "setting": "[3]; positive controls: Riluzole 5 μM, BDNF 50 ng/ml, glutamate 5 μM 20 min, 24 hours, compared to the control", "result": "statistically significant increase in the number of motor neurons"}]}
